In publication PMC7251074, “Identification of Anti-tuberculosis Compounds From Aurone Analogs” (Frontiers in Microbiology, 2020):
≈ marks a conversion by molar mass, not a printed value. Like-named read-outs stand apart in the source and are kept apart here.

Legend:
[1] = system: purine nucleoside phosphorylase (PNP); assay: Purine nucleoside phosphorylase counter-assay; format: biochemical; settings: PNP 0.2 U, MESG 50 μM, potassium phosphate 10 mM
Protocol: FIGURE 4 AA2A and 9504 inhibit Mtb-Cs activity. (A) Assay to measure the ability of aurones to inhibit Cs of Mtb. (B) SDS-PAGE analysis of extracted rRv3227 (left) and rRv2540c (right). Lane 1: marker (PageRuler^M Unstained); 2: crude protein extracts; 3–5: samples eluted from Ni-column by 125, 250, and 500 mM imidazole, respectively; 6: the concentrated proteins eluted by 500 mM imidazole. (C) Evaluation of 9501, 9504, 9505, and 9510 inhibitory effects on Mtb-Cs activity. (D) Evaluation of AA2A and AA8 inhibitory effects on Mtb-Cs activity. Data are means of three independent experiments ± S.D. The reaction mixture comprised Mtb-Cs, various concentrations of aurone leads, EPSP ([…]), FMN (0.04 mM) and NADH (0.3 mM). The production of chorismate from the enzymatic reaction was determined by measuring Pi production using MESG (0.2 mM) and PNP (1 U). […] The reaction mixture comprised PNP (0.2 U), MESG (50 μM), potassium phosphate (10 mM), and aurones (50 μM for 9501, 9504, 9505, and 9510; 200 μM for AA2A and AA8). No significant differences (P > 0.05) were identified between each of the aurone-treated group and the positive control group. Data are means of three independent experiments ± S.D.

[2] = target: Mtb chorismate synthase (Mtb-Cs, Rv2540c) (Mycobacterium tuberculosis, UniProt P9WPY1); assay: Mtb chorismate synthase activity assay (coupled, Pi production with MESG/PNP); format: biochemical; settings: Pi production at A360, EPSP, FMN 0.04 mM, NADH 0.3 mM
[3] = system: tdTomato-expressing Mtb CDC1551 strain; assay: microbe, parasite or virus in culture; format: cell-based, Mycobacterium tuberculosis; settings: aurones at 100 μM, 3 days co-incubation, tdTomato fluorescence intensity; for inhibition at 100 µM: Mycobacterium tuberculosis, 72 h, read-out: Inhibitory rate
HepG2 cells = assay: MTT cell viability cytotoxicity assay, HepG2; format: cell-based, human; settings: for IC50: Homo sapiens, HepG2, 48 h, read-out: IC50 HepG2; for SI (IC50/MIC) HepG2: IC50 HepG2 / MIC Mtb, 2880 min; for selectivity index: on all three cell lines (HepG2, Vero, THP-1)
Protocol: Cytotoxicities of the aurones were evaluated in Vero cells (ATCC), HepG2 (ATCC), and THP-1 cells (ATCC) using the standard microculture tetrazolium (MTT) cell viability assay. Media used for the Vero cells was DMEM supplemented with 10% calf serum; for HepG2 cells the media used was DMEM supplemented with 20% calf serum; and for THP-1 cells the media used was RPMI-1640 supplemented with 10% calf serum (HyClone Cosmic Calf, GE Lifesciences). Cells were seeded into a 96-well plate. For THP-1 cells, phorbol-12-myristate-13-acetate (PMA) was used to induce the monocytes to develop into macrophages for 3 days before the cytotoxicity assay. A series of two-fold dilutions of aurones or RIF were added into the cell culture media in microplates to determine the concentration that eliminated 50% of eukaryotic cell growth in a 2-days incubation. Cells without drug treatment were incubated with the vehicle buffer and served as negative controls (100% viable). Cells treated with digitonin (100 μg/mL) served as the positive controls. After a 2-days incubation, 10 μL of MTT reagent was loaded into each well, and incubated for 3 h at 37°C. Hundred microliter of detergent solution was then added into each well and the 96-well plates were incubated for 2 h. Absorbance of each sample in the 96-well plates was measured at […]. Viability of each drug-treated sample was calculated as the absorbance of the sample divided by the absorbance of the untreated sample multiplied by 100.
We determined MICs of the top six aurone leads (AA2A, AA8, 9501, 9504, 9505, and 9510) using the standard resazurin microtiter assay (REMA) ([Palomino et al., 2002]). The MIC was defined as the lowest drug concentration that prevented the color change of resazurin from blue to pink. The MICs for 9504, 9505, 9501, 9510, AA2A, and AA8 were 6.25, 12.5, 25, 25, 25, and 50 μM, respectively (Table 2). We evaluated the cytotoxic effects of aurones to human liver cells HepG2, primate kidney Vero cells and human monocyte THP-1 cells after a 2-days incubation using the microculture tetrazolium (MTT) cell viability assay. Concentration gradients of the selected aurones or RIF (as a control) were incubated with the three cell lines. We calculated half maximal inhibitory concentration (IC50) of aurones on these three cell lines. By comparing MICs with IC50, we calculated the selectivity index (SI) for each aurone lead as […].

[4] = system: intracellular Mtb in THP-1 cell derived macrophages; assay: Efficacy against intracellular Mtb in THP-1 derived macrophages; format: cell-based, Mycobacterium tuberculosis; settings: for Mtb CFU compared to the initial intracellular Mtb load (0 h) / CFUs of intracellular Mtb at 48 h compared to before treatment (0 h): 48 h; for CFUs of intracellular Mtb at 48 h compared to before treatment (0 h): 25 and 50 μM
Protocol: Human monocyte THP-1 cells were seeded at 5 × 10^4 cells / well in 96-well tissue culture black plates with clear bottoms. PMA was used to induce the monocytes to develop into macrophages for 3 days before infection. The tdTomato-expressing Mtb strain was employed for cell infection at an MOI = 20. After a 3 h incubation of the Mtb strain with THP-1 cells, extracellular bacteria were removed by washing twice with the cell culture medium. 200 μL of cell culture medium containing either 25 or 50 μM aurones or 1X MICs of amikacin (AMI, 1 μg/mL), ethambutol (ETH, 0.5 μg/mL), RIF (0.4 μg/mL) and isoniazid (INH) (0.5 μg/mL) was added to each well in triplicate and incubated for 48 h. Infected cells treated with the vehicle buffer served as negative controls. Cells were then lysed and plated for CFU counting.
FIGURE 2 Aurones inhibit intracellular Mtb. (A) Growth ratios of samples treated with the aurone leads or control drugs compared to the growth ratio of untreated control. Growth ratio of each sample = FI of each sample at 48 h / FI of the same sample at 0 h. (B) CFUs of samples treated with the aurone leads or control drugs compared to the CFU of untreated control at 0 and 48 h. 25 and 50 μM of the aurone leads were incubated with the infected cells (MOI = 20) after removing extracellular bacteria. Positive controls: AMI (1 μg/mL), ETH (0.5 μg/mL), INH (0.5 μg/mL), and RIF (0.4 μg/mL). Data are means of three independent experiments ± S.D. *P < 0.05, **P < 0.01, ****P < 0.0001.

THP-1 cells = assay: MTT cell viability cytotoxicity assay, THP-1 derived macrophages; format: cell-based, human; settings: for IC50: Homo sapiens, THP-1, 48 h, read-out: IC50 THP-1; for SI (IC50/MIC) THP-1: IC50 THP-1 / MIC Mtb, 2880 min
[5] = system: tdTomato-expressing Mtb in the lungs of BALB/c mice; format: in vivo, Mycobacterium tuberculosis; settings: after a 12-days treatment
Vero cells = assay: MTT cell viability cytotoxicity assay, Vero; format: cell-based, primate; settings: for SI (IC50/MIC) Vero: IC50 Vero / MIC Mtb, 2880 min; for IC50: Primates, Vero, 48 h, read-out: IC50 Vero
Mtb CDC1551 = assay: Resazurin microtiter assay (REMA) for MICs; format: cell-based; settings: Mycobacterium tuberculosis, CDC1551, 168 h
Mtb = system: Mtb; parameters: method as in Jayaram et al., 2003; settings: 10 mg/kg, 12 daily oral doses; ref Jayaram et al., 2003; cited from earlier work
[6] = MTT, 2-days incubation, PMA-induced macrophages
[7] = REMA, 7 days incubation, lowest concentration preventing resazurin colour change, read-out: MIC

Chain of Mtb chorismate synthase (Mtb-Cs, Rv2540c) (P9WPY1 whole entry): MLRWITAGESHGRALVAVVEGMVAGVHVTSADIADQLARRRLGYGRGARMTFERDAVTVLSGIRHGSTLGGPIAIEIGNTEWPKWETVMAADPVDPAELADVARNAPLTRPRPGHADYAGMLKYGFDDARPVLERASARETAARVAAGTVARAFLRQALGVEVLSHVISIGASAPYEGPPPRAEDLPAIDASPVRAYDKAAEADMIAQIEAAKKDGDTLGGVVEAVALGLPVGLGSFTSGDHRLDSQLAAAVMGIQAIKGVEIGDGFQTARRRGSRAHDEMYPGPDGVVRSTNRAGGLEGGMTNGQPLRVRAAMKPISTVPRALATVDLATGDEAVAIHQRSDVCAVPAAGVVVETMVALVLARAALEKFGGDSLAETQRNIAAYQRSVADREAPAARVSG

| Structure (SMILES) | IC50 [2] [µM] | inhibition at 100 µM [3] [%] | IC50 (HepG2 cells; MTT, 2-days incubation) [µM] | SI (IC50/MIC) HepG2 (HepG2 cells) | Mtb CFU compared to the initial intracellular Mtb load (0 h) ([4]; 50 μM) | CFUs of intracellular Mtb at 48 h compared to before treatment (0 h) [4] | IC50 (THP-1 cells; [6]) [µM] | SI (IC50/MIC) THP-1 (THP-1 cells) | Mtb load in the lungs of infected mice [5] | SI (IC50/MIC) Vero (Vero cells) | IC50 (Vero cells; MTT, 2-days incubation) [µM] | MIC (Mtb CDC1551; [7]) [µM] | Inhibitory rate [3] [%] | inhibition of PNP ([1]; aurone 50 μM) | further results |
| --- | --- | --- | --- | --- | --- | --- | --- | --- | --- | --- | --- | --- | --- | --- | --- |
| CC(=O)N1C(=Cc2ccccc2Br)C(=O)c2ccccc21 [AA2A] | 24.1 ± 0.55 | 85.95 ± 0.38 | 118 | 4.71 | reduced Mtb CFU significantly | did not increase | 110 | 4.39 | significantly reduced | 5.13 | 128 | 25 (≈ 8.55 µg/mL) |  |  | inhibition of PNP ([1]; aurone 200 μM): do not inhibit |
| CC(=O)N1/C(=C\c2ccccc2O)C(=O)c2ccccc21 [AA3A] |  |  |  |  |  |  |  |  |  |  |  |  | 41.32 ± 9.99 |  |  |
| CC(=O)N1/C(=C\c2ccc(CO)o2)C(=O)c2ccccc21 [AA4A] |  |  |  |  |  |  |  |  |  |  |  |  | 66.18 ± 0.98 |  |  |
| CC(=O)N1/C(=C\c2ccc[nH]2)C(=O)c2ccccc21 [AA5A] |  |  |  |  |  |  |  |  |  |  |  |  | 69.93 ± 10.09 |  |  |
| O=C1C(=Cc2ccccc2)Nc2ccccc21 [AA8] | 50.3 ± 8.61 | 71.9 ± 2 | 399 | 7.99 |  | did not increase | 504 | 10.08 | significantly reduced | 5.58 | 279 | 50 (≈ 11.1 µg/mL) |  |  | inhibition of PNP ([1]; aurone 200 μM): do not inhibit |
| CN(C)c1ccc(C=C2Oc3cc(Br)ccc3C2=O)cc1 [Aurone 9504] | 17.1 ± 1.07 | 88.29 ± 0.16 |  | 126.40 | reduced Mtb CFU significantly | did not increase |  | 100.50 | significantly reduced | 87.98 |  |  |  | do not inhibit | IC50 (HepG2 cells): 790 µM; selectivity index (HepG2 cells): > 10; IC50 (THP-1 cells): 628 µM; IC50 (Vero cells): 550 µM; MIC (Mtb CDC1551): 6.25 µM (≈ 2.15 µg/mL) |
| CN(C)c1ccc(C=C2Oc3c(Br)cccc3C2=O)cc1 [Aurone 9505] | 24.5 ± 9.44 | 84.4 ± 2.99 | 29.3 | 2.34 | reduced Mtb CFU significantly | did not increase | 219 | 17.56 |  | 38.34 | 479 | 12.5 (≈ 4.3 µg/mL) |  | do not inhibit | Mtb CFU compared to the initial intracellular Mtb load (0 h) ([4]; 25 μM): reduced Mtb CFU significantly |
| Cc1cc2c(cc1C)C(=O)C(=Cc1ccc(N(C)C)cc1)O2 [Aurone 9510] | 15.1 ± 1.68 | 83.1 ± 1.62 | 451 | 18.06 |  |  | 693 | 27.71 |  | 35.69 | 892 | 25 (≈ 7.33 µg/mL) |  | do not inhibit | selectivity index (HepG2 cells): > 10; intracellular Mtb replication ([4]; 25 μM, at 48 h): did not fully inhibit |
| CO[C@H]1/C=C/O[C@@]2(C)Oc3c(C)c(O)c4c(O)c(c(/C=N/N5CCN(C)CC5)c(O)c4c3C2=O)NC(=O)/C(C)=C\C=C\[C@H](C)[C@H](O)[C@@H](C)[C@@H](O)[C@@H](C)[C@H](OC(C)=O)[C@@H]1C [RIF, rifampicin, reference compound] |  |  | 4.56 |  |  |  | 15 |  |  |  | 22.8 | 0.5 (≈ 0.411 µg/mL) |  |  | CFU reduction in bacterial burden in the lungs (Mtb): ~1 log10 CFU |
